Reference: ChEMBL document CHEMBL1148221, “Constituents of Senecio chionophilus with potential antitubercular activity” (2004)
Values after ≈ are worked out from the molar mass of the structure shown.

These compounds were tested on Mycobacterium tuberculosis (assay: Antitubercular activity against Mycobacterium tuberculosis H37Rv ATCC 27294 by microplate Alamar blue assay).
Assay type: functional

SMILES | MIC [µg/mL]
C/C=C(/C)C(=O)O[C@@H]1c2c(C)coc2C(=O)[C@@H]2[C@@H](O)CC[C@H](C)[C@@]12C | 114 (≈ 329 µM)
CCC(C)C(=O)O[C@@H]1c2c(C)coc2C(=O)[C@@H]2[C@@H](O)CC[C@H](C)[C@@]12C (some centres not stated) | 119 (≈ 342 µM)
CC(=O)c1ccc(O)cc1 [4-HYDROXYACETOPHENONE] | 121 (≈ 889 µM)
C=C(C)[C@@H]1CC[C@]2(C(=O)O)CC[C@]3(C)[C@H](CC[C@@H]4[C@@]5(C)CC[C@H](O)C(C)(C)[C@@H]5CC[C@]43C)[C@@H]12 [BETULINIC ACID] | 32 (≈ 70.1 µM)
CC1(C)CC[C@]2(C(=O)O)CC[C@]3(C)C(=CC[C@@H]4[C@@]5(C)CC[C@H](O)C(C)(C)[C@@H]5CC[C@]43C)[C@@H]2C1 [OLEANOLIC_ACID] | 64 (≈ 140 µM)
CO[C@H]1/C=C/O[C@@]2(C)Oc3c(C)c(O)c4c(O)c(c(/C=N/N5CCN(C)CC5)c(O)c4c3C2=O)NC(=O)/C(C)=C\C=C\[C@H](C)[C@H](O)[C@@H](C)[C@@H](O)[C@@H](C)[C@H](OC(C)=O)[C@@H]1C [RIFAMPIN] | 0.03 (≈ 0.0365 µM)
C[C@H]1[C@H](C)CC[C@]2(C(=O)O)CC[C@]3(C)C(=CC[C@@H]4[C@@]5(C)CC[C@H](O)C(C)(C)[C@@H]5CC[C@]43C)[C@H]12 [URSOLIC ACID] | 32 (≈ 70.1 µM)
